Counter-ions that a name gives are not always drawn. Like-named read-outs stand apart in the source and are kept apart here.
Assays:
Human Calpain 2/NS1 = target: T1, Human Calpain 2/NS1 (Homo sapiens, UniProt P17655); experiment: Calpain inhibition continuous fluorescence (FRET) assay, Human Calpain 2/NS1; format: biochemical
T1 sequence (P17655 1-700): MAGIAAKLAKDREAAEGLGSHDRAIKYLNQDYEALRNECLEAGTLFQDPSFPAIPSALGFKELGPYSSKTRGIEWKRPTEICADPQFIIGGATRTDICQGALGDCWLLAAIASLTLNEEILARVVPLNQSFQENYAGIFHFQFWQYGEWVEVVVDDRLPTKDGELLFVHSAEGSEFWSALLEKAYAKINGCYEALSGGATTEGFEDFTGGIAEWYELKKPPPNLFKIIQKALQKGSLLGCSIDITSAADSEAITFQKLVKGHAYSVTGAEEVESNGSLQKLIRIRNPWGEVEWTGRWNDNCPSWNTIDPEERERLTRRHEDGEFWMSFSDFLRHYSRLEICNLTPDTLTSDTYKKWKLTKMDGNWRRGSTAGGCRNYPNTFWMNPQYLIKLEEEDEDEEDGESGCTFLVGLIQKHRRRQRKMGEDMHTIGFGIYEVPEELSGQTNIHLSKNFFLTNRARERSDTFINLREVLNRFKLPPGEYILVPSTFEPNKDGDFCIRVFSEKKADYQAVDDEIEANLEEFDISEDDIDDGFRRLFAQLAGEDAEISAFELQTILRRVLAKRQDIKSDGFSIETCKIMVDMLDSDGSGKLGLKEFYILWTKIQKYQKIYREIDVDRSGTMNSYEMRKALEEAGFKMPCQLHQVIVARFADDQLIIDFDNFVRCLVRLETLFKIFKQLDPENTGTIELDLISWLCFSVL
T1 sequence (P04632 1-268 partner): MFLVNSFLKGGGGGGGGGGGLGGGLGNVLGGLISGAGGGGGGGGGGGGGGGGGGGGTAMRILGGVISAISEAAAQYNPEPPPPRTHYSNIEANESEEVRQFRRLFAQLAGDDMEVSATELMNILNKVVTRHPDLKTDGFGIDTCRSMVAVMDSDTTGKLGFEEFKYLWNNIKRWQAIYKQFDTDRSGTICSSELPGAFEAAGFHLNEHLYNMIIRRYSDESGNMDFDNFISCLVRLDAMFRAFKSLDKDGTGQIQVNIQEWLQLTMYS
Method in brief: (§1)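 Inhibitors were preincubated with calpain in 50 mM Tris pH 7.5, 100 mM NaCl, 1 mM DTT at 25C. Reactions were started with 5-FAM/QXL 520 FRET peptide substrate plus CaCl2 and read at 490/520 nm for 10 min. IC50s came from 4-parameter fits of slope rates (1-5 min).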

[1] = test system: Calpain activity in SH-SY5Y cells (SBDP-150); experiment: SH-SY5Y Spectrin western blot assay (SBDP-150 breakdown product, A23187-induced); format: cell-based; details: Homo sapiens, read-out: SH-SY5Y Spectrin IC50
[2] = test system: Calpain activity in SH-SY5Y cells; experiment: SH-SY5Y + AMC fluorescence assay (Suc-LLVY-AMC substrate); format: cell-based
Human Calpain 1/NS1 = target: T2, Human Calpain 1/NS1 (Homo sapiens, UniProt P07384); experiment: Calpain inhibition continuous fluorescence (FRET) assay, Human Calpain 1/NS1; format: biochemical
T2 sequence (P07384 1-714): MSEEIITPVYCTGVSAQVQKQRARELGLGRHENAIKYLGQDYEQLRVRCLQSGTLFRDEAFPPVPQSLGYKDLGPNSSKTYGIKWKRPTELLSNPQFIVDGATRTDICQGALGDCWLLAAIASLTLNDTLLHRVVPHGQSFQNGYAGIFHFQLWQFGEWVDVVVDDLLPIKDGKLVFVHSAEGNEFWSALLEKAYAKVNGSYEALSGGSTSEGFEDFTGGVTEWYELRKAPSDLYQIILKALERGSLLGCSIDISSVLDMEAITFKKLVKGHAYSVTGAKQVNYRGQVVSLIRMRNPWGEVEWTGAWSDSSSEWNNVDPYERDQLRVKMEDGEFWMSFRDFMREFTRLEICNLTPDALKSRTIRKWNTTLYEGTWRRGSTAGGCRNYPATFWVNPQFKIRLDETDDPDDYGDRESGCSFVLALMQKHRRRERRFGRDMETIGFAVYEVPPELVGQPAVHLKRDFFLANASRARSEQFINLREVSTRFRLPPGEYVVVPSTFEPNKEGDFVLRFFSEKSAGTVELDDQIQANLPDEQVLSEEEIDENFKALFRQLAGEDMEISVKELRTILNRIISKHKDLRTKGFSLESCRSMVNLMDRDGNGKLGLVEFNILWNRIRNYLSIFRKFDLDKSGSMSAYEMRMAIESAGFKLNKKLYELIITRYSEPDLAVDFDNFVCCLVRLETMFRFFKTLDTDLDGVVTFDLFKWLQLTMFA
T2 sequence (P04632 1-268 partner): T1 sequence (P04632 1-268 partner)
Method in brief: as §1

Human Calpain 9/NS1 = target: T3, Human Calpain 9/NS1 (Homo sapiens, UniProt O14815); experiment: Calpain inhibition continuous fluorescence (FRET) assay, Human Calpain 9/NS1; format: biochemical
T3 sequence (O14815 1-690): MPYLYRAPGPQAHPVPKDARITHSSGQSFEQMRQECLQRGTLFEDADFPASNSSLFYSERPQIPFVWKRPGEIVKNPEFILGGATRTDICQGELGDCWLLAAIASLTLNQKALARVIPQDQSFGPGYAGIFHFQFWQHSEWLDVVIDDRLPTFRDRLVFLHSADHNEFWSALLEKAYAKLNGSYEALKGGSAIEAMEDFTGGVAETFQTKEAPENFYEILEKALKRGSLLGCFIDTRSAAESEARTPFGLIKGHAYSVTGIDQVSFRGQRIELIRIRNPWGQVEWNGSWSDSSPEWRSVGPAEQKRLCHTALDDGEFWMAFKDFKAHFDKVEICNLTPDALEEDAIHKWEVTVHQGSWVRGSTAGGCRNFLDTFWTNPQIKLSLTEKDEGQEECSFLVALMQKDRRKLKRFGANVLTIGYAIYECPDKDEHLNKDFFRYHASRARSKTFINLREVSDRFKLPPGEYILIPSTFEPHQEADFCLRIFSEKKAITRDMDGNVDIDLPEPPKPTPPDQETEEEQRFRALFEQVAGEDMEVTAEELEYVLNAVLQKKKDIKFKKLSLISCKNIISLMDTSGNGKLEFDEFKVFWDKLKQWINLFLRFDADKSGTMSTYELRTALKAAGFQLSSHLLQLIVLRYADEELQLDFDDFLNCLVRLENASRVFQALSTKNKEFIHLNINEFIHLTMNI
T3 sequence (P04632 1-268 partner): T1 sequence (P04632 1-268 partner)
Method in brief: as §1

[3] = Column B, read-out: Human Calpain 2/NS1 IC50
[4] = Column D, SH-SY5Y cells, A23187-induced SBDP-150
[5] = Column E, read-out: SH-SY5Y + AMC IC50
[6] = Column A, read-out: Human Calpain 1/NS1 IC50
[7] = Column C, read-out: Human Calpain 9/NS1 IC50
[8] = read-out: SH-SY5Y + AMC IC50, Column E

Row | Structure (SMILES) | IC50 (Human Calpain 2/NS1; [3]) [µM] | IC50 [1, 4] [µM] | IC50 [2, 5] [µM] | IC50 (Human Calpain 1/NS1; [6]) [µM] | IC50 (Human Calpain 9/NS1; [7]) [µM] | IC50 ([1]; SH-SY5Y) [µM] | IC50 [2, 8] [µM] | IC50 (Human Calpain 2/NS1) [µM] | IC50 (Human Calpain 1/NS1) [µM] | IC50 (Human Calpain 9/NS1) [µM]
1 | Cc1cc(C(=O)N[C@@H](Cc2ccccc2)C(=O)C(N)=O)n(-c2ccc(CNS(=O)(=O)c3ccccc3)cc2)n1 [Compound 156, (S)—N-(4-amino-3,4-dioxo-1-phenylbutan-2-yl)-3-methyl-1-(4-(phenylsulfonamidomethyl)phenyl)-1H-pyrazole-5-carboxamide] | < 3 | < 10 | > 25 | < 3 | < 3 |  |  |  |  | 
2 | CC(=O)NCc1ccc(-n2nc(C)cc2C(=O)N[C@@H](Cc2ccccc2)C(=O)C(N)=O)cc1 [Compound 157, (S)-1-(4-(acetamidomethyl)phenyl)-N-(4-amino-3,4-dioxo-1-phenylbutan-2-yl)-3-methyl-1H-pyrazole-5-carboxamide] | < 3 |  |  | < 3 | < 3 | > 25 | > 25 |  |  | 
3 | COC(=O)NCc1ccc(-n2nc(C)cc2C(=O)N[C@@H](Cc2ccccc2)C(=O)C(N)=O)cc1 [Compound 158, Methyl (S)-(4-(5-((4-amino-3,4-dioxo-1-phenylbutan-2-yl)carbamoyl)-3-methyl-1H-pyrazol-1-yl)benzyl)carbamate] | < 3 | 10 to 25 | > 25 | < 3 | < 3 |  |  |  |  | 
4 | Cc1cc(C(=O)N[C@@H](Cc2ccccc2)C(=O)C(N)=O)n(-c2ccc(CNC(=O)Cc3ccccc3)cc2)n1 [Compound 159, (S)—N-(4-amino-3,4-dioxo-1-phenylbutan-2-yl)-3-methyl-1-(4-((2-phenylacetamido)methyl)phenyl)-1H-pyrazole-5-carboxamide] | < 3 | 10 to 25 | > 25 | < 3 | < 3 |  |  |  |  | 
5 | Cc1cc(C(=O)N[C@@H](Cc2ccccc2)C(=O)C(N)=O)n(-c2ccc(CNCc3ccccc3)cc2)n1 [Compound 160, (S)—N-(4-amino-3,4-dioxo-1-phenylbutan-2-yl)-1-(4-((benzylamino)methyl)phenyl)-3-methyl-1H-pyrazole-5-carboxamide hydrochloride] | < 3 | 10 to 25 | > 25 | < 3 | < 3 |  |  |  |  | 
6 | Cc1cc(C(=O)N[C@@H](Cc2ccccc2)C(=O)C(N)=O)n(-c2ccc(CNC(=O)Oc3ccccc3)cc2)n1 [Compound 162, Phenyl (S)-(4-(5-((4-amino-3,4-dioxo-1-phenylbutan-2-yl)carbamoyl)-3-methyl-1H-pyrazol-1-yl)benzyl)carbamate] |  |  |  |  |  | > 25 | > 25 | < 3 | < 3 | < 3
7 | Cc1cccc(-c2nn(C)cc2C(=O)N[C@@H](Cc2ccccc2)C(=O)C(N)=O)c1 [Compound 163, (S)—N-(4-amino-3,4-dioxo-1-phenylbutan-2-yl)-1-methyl-3-(M-tolyl)-1H-pyrazole-4-carboxamide] | < 3 | 10 to 25 | 10 to 25 | < 3 | < 3 |  |  |  |  | 
8 | Cn1ncc(C(=O)N[C@@H](Cc2ccccc2)C(=O)C(N)=O)c1-c1ccccn1 [Compound 164, (S)—N-(4-amino-3,4-dioxo-1-phenylbutan-2-yl)-1-methyl-5-(pyridin-2-yl)-1H-pyrazole-4-carboxamide] | < 3 | > 25 | > 25 | < 3 | < 3 |  |  |  |  | 
9 | Cc1ccc(-c2nn(C)cc2C(=O)N[C@@H](Cc2ccccc2)C(=O)C(N)=O)cc1 [Compound 166, (S)—N-(4-amino-3,4-dioxo-1-phenylbutan-2-yl)-1-methyl-3-(p-tolyl)-1H-pyrazole-4-carboxamide] | < 3 | 10 to 25 | > 25 | < 3 | < 3 |  |  |  |  | 
10 | Cn1cc(C(=O)N[C@@H](Cc2ccc(F)cc2)C(=O)C(N)=O)c(-c2ccccc2)n1 [Compound 168, (S)—N-(4-amino-1-(4-fluorophenyl)-3,4-dioxobutan-2-yl)-1-methyl-3-phenyl-1H-pyrazole-4-carboxamide] | < 3 | 10 to 25 | < 10 | < 3 | < 3 |  |  |  |  | 
11 | Cn1cc(C(=O)N[C@@H](Cc2ccccc2)C(=O)C(N)=O)c(-c2ccncc2)n1 [Compound 170, (S)—N-(4-amino-3,4-dioxo-1-phenylbutan-2-yl)-1-methyl-3-(pyridin-4-yl)-1H-pyrazole-4-carboxamide] | < 3 | > 25 | > 25 | < 3 | < 3 |  |  |  |  | 
12 | Cc1ccccc1-c1nn(C)cc1C(=O)N[C@@H](Cc1ccccc1)C(=O)C(N)=O [Compound 171, (S)—N-(4-amino-3,4-dioxo-1-phenylbutan-2-yl)-1-methyl-3-(o-tolyl)-1H-pyrazole-4-carboxamide] | 3 to 10 | > 25 | 10 to 25 | < 3 | < 3 |  |  |  |  | 
13 | Cc1cccc(-c2c(C(=O)N[C@@H](Cc3ccccc3)C(=O)C(N)=O)cnn2C)c1 [Compound 172, (S)—N-(4-amino-3,4-dioxo-1-phenylbutan-2-yl)-1-methyl-5-(m-tolyl)-1H-pyrazole-4-carboxamide] | < 3 | < 10 | > 25 | < 3 | < 3 |  |  |  |  | 
14 | Cn1cc(C(=O)N[C@@H](Cc2ccccc2)C(=O)C(N)=O)c(-c2cncnc2)n1 [Compound 173, (S)—N-(4-amino-3,4-dioxo-1-phenylbutan-2-yl)-1-methyl-3-(pyrimidin-5-yl)-1H-pyrazole-4-carboxamide] | < 3 | > 25 | > 25 | < 3 | < 3 |  |  |  |  | 
15 | Cn1ncc(C(=O)N[C@@H](Cc2ccccc2)C(=O)C(N)=O)c1-c1cnccn1 [Compound 174] | < 3 | > 25 | > 25 | < 3 | < 3 |  |  |  |  | 
